Laboratory results: patent US6087366A (The Trustees of Columbia University in the City of New York, priority 1996, dated 2000)
Read-outs that look alike come from different tables or passages of the source.

Experiments:
[1] = tested on: neuronally-differentiated PC12 cells; assay: survival of neuronally-differentiated PC12 cells after NGF withdrawal; format: cell-based, rat; details: for EC (maximal): Rattus norvegicus
Experimental: (§1) For survival experiments, naive or neuronally-differentiated PC12 cells were washed extensively in serum-, NGF-free medium as previously described (6,24) and replated onto collagen-coated 24-well tissue culture dishes at a density of approximately 2×10^5 cells per well. The final volume of medium in each well, including all drugs was 1 ml. To allow time for blockade of DNA synthesis, naive PC12 cells were, in some cases, pretreated with drug for 16 hr prior to serum withdrawal. NGF-treated neuronally-differentiated cells were not pretreated with drug prior to serum deprivation. At appropriate times of culture under the desired conditions, cells were lysed and the numbers of viable cells were determined as previously described (24). The number of intact nuclei was determined by counting in a hemacytometer. All counts were performed in triplicate, and survival data are expressed as a percentage of cells plated on day 0+/-SEM.

[2] = as above; format: cell-based, rat; details: rat; post-mitotic neuronally-differentiated PC12 cells, with NGF, day 3; read-out: death in the presence of NGF
Experimental: as §1

c-Jun kinase (JNK) [3] = assay: c-Jun kinase activation in NGF-deprived neuronally-differentiated PC12 cells; format: cell-based, rat; details: flavopiridol 1 μM, olomoucine 200 μM
Experimental: (§2) c-Jun kinase (JNK) was affinity purified from PC12 cell extracts with GST-c-Jun (a gift from Dr. Michael Karin, University of California, San Diego) bound to GSH-agarose beads (Sigma) by methods previously described (34). c-Jun kinase activity was determined by an in vitro solid-phase kinase assay as described previously (34). Activated c-Jun kinase was isolated from PC12 cells treated with 0.5 mM sodium arsenite for 30 min. […] GST-c-Jun was resolved on a 8.5% SDS gel and incorporation of ^32 PO4 was quantified by autoradiography and densitometry.

c-Jun kinase (JNK) [4] = assay: in vitro solid-phase kinase assay, phosphorylation of GST-c-Jun by activated JNK; format: biochemical, rat; details: for IC50: read-out: IC50, inhibition of GST-c-Jun phosphorylation by activated JNK in vitro
Experimental: as §2

rat sympathetic neurons = assay: survival of rat sympathetic neurons after NGF withdrawal; format: cell-based; details: for survival of NGF-deprived sympathetic neurons: flavopiridol 1 μM, iso-olomoucine 200 μM
Experimental: The cells were plated in 0.5 ml of medium per well in collagen-coated 24-well dishes at a density of approximately 0.5 ganglia per well. […] To eliminate non-neuronal cells, a mixture of uridine and 5-fluorodeoxyuridine (10 μM each) were added to the cultures on the following day. […] The appropriate drug and/or NGF or anti-mouse NGF antibody (1:200 dilution) was added in a final volume of 0.5 ml of the same medium described above. At appropriate times, the numbers of viable, phase bright neurons were determined by strip counting as previously described (33). All survival data are expressed as relative to the original number of cells counted for each well. All experimental points were performed in triplicate and are reported as mean+/-SEM,

[5] = tested on: neuronally-differentiated PC12 cells; assay: rate of protein synthesis ([3H]-leucine incorporation) in neuronally-differentiated PC12 cells; format: cell-based, rat
Experimental: (§3) Neuronally-differentiated PC12 cells and sympathetic neurons were plated on 24-well dishes as described above. After the cultures were pretreated with the appropriate drug for 1 hr, 5 μCi [^3 H]-leucine was added per well and the cells were allowed to incorporate the isotope for 10 hr. The cultures were washed and prepared for scintillation counting as described above for thymidine incorporation. Background levels of radioactivity was determined by treating wells with 5 μg/ml cycloheximide. All experimental points were performed in triplicate and the data are presented relative to untreated control samples as mean+/-SEM.

sympathetic neurons = assay: rate of protein synthesis ([3H]-leucine incorporation) in sympathetic neurons; format: cell-based; details: Rattus norvegicus, Sympathetic neuron
Experimental: as §3

[6] = survival of naive PC12 cells with or without serum; format: cell-based, rat; details: rat, naive pc12 cells; serum-containing medium, day 3; read-out: death of naive PC12 cells in the presence of serum
Experimental: as §1

naive PC12 cells [7] = assay: survival of naive PC12 cells with or without serum; format: cell-based, rat; details: 16 hrs pretreatment, serum withdrawal
Experimental: as §1

naive PC12 cells [8] = assay: [3H]-thymidine incorporation by naive PC12 cells; format: cell-based, rat; details: compared with olomoucine
Experimental: Naive PC12 cells were plated in collagen-coated 24-well dishes at a density of 4×10^5 per well in RPMI 1640 medium containing 3 μM insulin (Sigma) or 10% horse serum and 5% fetal calf serum. […] The cells were pretreated with the appropriate drug for a period of 16 hr prior to the addition of 1 μCi per well of [^3 H]-thymidine (NEN Products, Dupont). The cells were exposed to thymidine for 1-2 hour and then washed three times with cold PBS. Each well was extracted with 1 ml of 10% TCA at 4° C. for 1 hr, and the insoluble material was solubilized overnight at room temperature with 0.3 ml 1N NaOH. After neutralization with an equal volume of 1 N HCl, the solution was quantified by scintillation counting. The level of background counts was determined by treating cells with 10 μM aphidicolin. All experimental points were performed in triplicate. All data are presented relative to untreated control samples as mean+/-SEM.

cdk1 = details: read-out: IC50, inhibition of cdk1 activity; cited from earlier work
GST-ERK1 = details: read-out: IC50, inhibition of GST-ERK1 activity in vitro; cited from earlier work
[9] = neuronally-differentiated PC12 cells

Row | SMILES | cytotoxicity at 72 h [2] [%] | protection from cell death after NGF withdrawal [1, 9] | level of JNK activation after NGF deprivation (c-Jun kinase (JNK) [3]) | IC50 (c-Jun kinase (JNK) [4]) [µM] | survival of NGF-deprived sympathetic neurons (rat sympathetic neurons) | cytotoxicity at 72 h [6] [%] | survival of serum-deprived naive PC12 cells (naive PC12 cells [7]) | also measured
1 | COc1cccc(-c2cc(=O)c3ccccc3o2)c1N [PD 098059] |  |  |  |  |  |  |  | NGF-stimulated neurite regeneration ([1]; 20-100 μM, PC12 cells passaged into serum-free medium with NGF): effectively suppressed NGF-stimulated neurite regeneration; effect on NGF-promoted survival ([1]; 20-100 μM, naive or neuronally-differentiated PC12 cells, serum-free medium with or without NGF): neither blocked nor mimicked the capacity of NGF to promote survival
2 | CN1CC[C@H](c2c(O)cc(O)c3c(=O)cc(-c4ccccc4Cl)oc23)[C@H](O)C1 [flavopiridol, (-) cis-5,7-dihydroxy-2-(2-chlorophenyl) -8[4-(3-hydroxy-1-methyl) -piperidinyl]-4H-benzopyran-4-one] | ~20 | good maintenance of survival even 5 days after NGF withdrawal | did not decrease the level of JNK activation | > 12 | full survival for at least four days | 75 | died somewhat more quickly than control cells | EC (maximal) ([1]; PC-12, neuronally-differentiated PC12 cells, serum-free medium, read-out: concentration of maximal protection from death induced by NGF withdrawal): 1 µM; effect on in vitro phosphorylation of GST-c-Jun (c-Jun kinase (JNK) [4]; 12 μM): no effect; effect on in vitro phosphorylation of GST-c-Jun (c-Jun kinase (JNK) [4]; 50 μM): significantly inhibited phosphorylation; inhibition at 1 µM ([5]; Rattus norvegicus, PC-12): ~25%; inhibition at 1 µM (sympathetic neurons): ~25%
3 | Cn1cnc2nc(NCCO)nc(NCc3ccccc3)c21 [iso-olomoucine] |  | far less effective than olomoucine |  |  | ineffective |  |  | inhibition of thymidine incorporation (naive PC12 cells [8]): far less effective than olomoucine; IC50 (cdk1): > 500 µM
4 | Cn1cnc2c(NCc3ccccc3)nc(NCCO)nc21 [olomoucine, 2-(2-hydroxyethylamino) -6-benzylamino-9-methylpurine] | ~20 |  | did not decrease the level of JNK activation | ~100 |  | 75 | died at about the same rate as control cells | EC (maximal) ([1]; PC-12, read-out: concentration of maximal protection from death induced by NGF withdrawal): 200 µM; viability at 200 µM (rat sympathetic neurons; Rattus norvegicus, Sympathetic neuron, 168 h, read-out: neurons still viable): ~75%; effect on protein synthesis ([5]; PC12 cell cultures, 200 μM): no effect; inhibition at 200 µM (sympathetic neurons): ~30%; IC50 (GST-ERK1): 30 µM
